# Experimental data published in ChEMBL document CHEMBL5365526 (J Med Chem, 2023).
# The source made the active and inactive calls. No cut-off for these calls is given here.
# Key:
# [1] = target: T1, von Hippel-Lindau disease tumor suppressor/Mitogen-activated protein kinase 7 (Homo sapiens, UniProt Q13164+P40337); assay: PROTAC activity at VHL/ERK5 in human A-375 cells assessed as induction of ERK5 degradation at 100 nM incubated for 24 hrs by western blot analysis; type: cell-based
# Target sequence in this assay (P40337 whole entry partner): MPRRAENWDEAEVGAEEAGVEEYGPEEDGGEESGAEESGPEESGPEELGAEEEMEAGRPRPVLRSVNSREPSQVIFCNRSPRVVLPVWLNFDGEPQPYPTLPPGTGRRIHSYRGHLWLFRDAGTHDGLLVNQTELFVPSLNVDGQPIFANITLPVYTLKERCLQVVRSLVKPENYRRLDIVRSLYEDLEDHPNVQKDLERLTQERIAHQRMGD
# Target sequence in this assay (Q13164 2-816 limits assumed): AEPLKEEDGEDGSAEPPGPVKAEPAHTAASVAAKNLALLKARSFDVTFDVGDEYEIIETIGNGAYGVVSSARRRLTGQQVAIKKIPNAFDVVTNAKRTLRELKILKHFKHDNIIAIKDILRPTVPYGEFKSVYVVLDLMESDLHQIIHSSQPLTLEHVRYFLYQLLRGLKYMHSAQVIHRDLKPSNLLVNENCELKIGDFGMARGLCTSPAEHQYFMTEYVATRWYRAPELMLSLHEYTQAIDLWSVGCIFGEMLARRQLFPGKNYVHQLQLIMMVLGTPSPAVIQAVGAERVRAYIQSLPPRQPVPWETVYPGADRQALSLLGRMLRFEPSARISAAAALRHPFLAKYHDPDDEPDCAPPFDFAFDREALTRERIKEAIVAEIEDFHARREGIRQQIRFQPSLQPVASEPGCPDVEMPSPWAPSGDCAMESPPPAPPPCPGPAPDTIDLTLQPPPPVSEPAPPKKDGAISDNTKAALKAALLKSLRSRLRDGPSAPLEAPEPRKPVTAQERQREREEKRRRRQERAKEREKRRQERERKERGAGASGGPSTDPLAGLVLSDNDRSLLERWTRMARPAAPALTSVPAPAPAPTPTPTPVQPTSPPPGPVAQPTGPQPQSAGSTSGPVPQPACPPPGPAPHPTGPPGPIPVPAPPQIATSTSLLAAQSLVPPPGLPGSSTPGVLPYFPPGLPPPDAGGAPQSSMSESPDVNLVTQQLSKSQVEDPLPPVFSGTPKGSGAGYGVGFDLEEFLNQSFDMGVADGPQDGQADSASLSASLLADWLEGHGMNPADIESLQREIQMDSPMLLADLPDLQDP
# [2] = target: T1, von Hippel-Lindau disease tumor suppressor/Mitogen-activated protein kinase 7; assay: PROTAC activity at VHL/ERK5 in human A-375 cells assessed as induction of ERK5 degradation incubated for 24 hrs by western blot analysis; type: cell-based
# Target sequence in this assay (Q13164 whole entry): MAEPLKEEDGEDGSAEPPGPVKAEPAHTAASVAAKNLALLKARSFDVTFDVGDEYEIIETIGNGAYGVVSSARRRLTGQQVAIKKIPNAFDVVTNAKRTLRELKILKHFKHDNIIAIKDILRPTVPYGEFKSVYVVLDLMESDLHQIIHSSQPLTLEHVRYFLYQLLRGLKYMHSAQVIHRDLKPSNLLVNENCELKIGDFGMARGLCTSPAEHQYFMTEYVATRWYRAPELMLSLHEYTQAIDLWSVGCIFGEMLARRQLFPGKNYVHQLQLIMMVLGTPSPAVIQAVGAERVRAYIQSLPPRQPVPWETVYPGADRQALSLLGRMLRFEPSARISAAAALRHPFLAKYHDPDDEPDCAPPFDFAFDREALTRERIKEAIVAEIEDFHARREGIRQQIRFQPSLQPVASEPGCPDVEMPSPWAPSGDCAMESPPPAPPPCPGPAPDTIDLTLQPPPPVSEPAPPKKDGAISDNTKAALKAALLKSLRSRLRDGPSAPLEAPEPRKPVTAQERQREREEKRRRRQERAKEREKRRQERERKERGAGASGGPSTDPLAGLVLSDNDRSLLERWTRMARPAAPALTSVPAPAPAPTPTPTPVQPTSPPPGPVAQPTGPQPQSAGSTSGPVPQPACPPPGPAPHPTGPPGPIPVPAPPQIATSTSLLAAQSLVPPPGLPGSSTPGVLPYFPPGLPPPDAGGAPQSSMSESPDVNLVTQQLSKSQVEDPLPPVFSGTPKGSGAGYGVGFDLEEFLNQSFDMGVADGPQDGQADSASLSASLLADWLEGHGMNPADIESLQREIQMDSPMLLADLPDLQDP
# Target sequence in this assay (P40337 whole entry): as the sequence (P40337 whole entry partner) above
# [3] = target: T2, Mitogen-activated protein kinase 7 (Homo sapiens, UniProt Q13164); assay: Inhibition of ERK5 (unknown origin) by ADP-Glo kinase assay
# Target sequence in this assay (Q13164 whole entry): as the sequence (Q13164 whole entry) above
# [4] = target: von Hippel-Lindau disease tumor suppressor/Bromodomain-containing protein 4 (Homo sapiens) (UniProt O60885+P40337); assay: PROTAC activity at VHL/BRD4 in human A-375 cells assessed as induction of BRD4 degradation at 6 to 500 nM incubated for 12 hrs by western bot analysis; type: cell-based; details: dose 6-500 nM
# von Hippel-Lindau disease tumor suppressor/Bromodomain-containing protein 4 (Homo sapiens), sequence (P40337 whole entry, looked up, other chains not shown): as the sequence (P40337 whole entry partner) above
# [5] = target: T1, von Hippel-Lindau disease tumor suppressor/Mitogen-activated protein kinase 7; assay: PROTAC activity at VHL/ERK5 in human A-375 cells assessed as induction of ERK5 degradation at 200 nM incubated for 2 to 4 hrs by western blot analysis; type: cell-based; details: time 2-4 hrs
# Target sequence in this assay (P40337 whole entry partner): as above
# Target sequence in this assay (Q13164 2-816 limits assumed): as the sequence (Q13164 2-816 limits assumed) above
# [6] = target: T1, von Hippel-Lindau disease tumor suppressor/Mitogen-activated protein kinase 7; assay: PROTAC activity at VHL/ERK5 in human A-375 cells assessed as induction of ERK5 degradation at 200 nM incubated for 72 hrs by western blot analysis; type: cell-based
# Target sequence in this assay (P40337 whole entry partner): as the sequence (P40337 whole entry partner) above
# Target sequence in this assay (Q13164 2-816 limits assumed): as the sequence (Q13164 2-816 limits assumed) above
# [7] = target: T1, von Hippel-Lindau disease tumor suppressor/Mitogen-activated protein kinase 7; assay: PROTAC activity at VHL/ERK5 in human MDA-MB-231 cells assessed as induction of ERK5 degradation incubated for 12 hrs by western blot analysis; type: cell-based
# Target sequence in this assay (Q13164 whole entry): as the sequence (Q13164 whole entry) above
# Target sequence in this assay (P40337 whole entry): as the sequence (P40337 whole entry partner) above
# [8] = target: T1, von Hippel-Lindau disease tumor suppressor/Mitogen-activated protein kinase 7; assay: PROTAC activity at VHL/ERK5 in human HCT-116 cells assessed as induction of ERK5 degradation incubated for 12 hrs by western blot analysis; type: cell-based
# Target sequence in this assay (Q13164 whole entry): as the sequence (Q13164 whole entry) above
# Target sequence in this assay (P40337 whole entry): as the sequence (P40337 whole entry partner) above
# [9] = target: T1, von Hippel-Lindau disease tumor suppressor/Mitogen-activated protein kinase 7; assay: PROTAC activity at VHL/ERK5 in human A-375 cells assessed as induction of ERK5 degradation incubated for 12 hrs by western blot analysis; type: cell-based
# Target sequence in this assay (Q13164 whole entry): as the sequence (Q13164 whole entry) above
# Target sequence in this assay (P40337 whole entry): as the sequence (P40337 whole entry partner) above
# A-375 [10] = assay: Effect on dabrafenib-induced antitumor activity against human A-375 cells assessed as reduction in cell viability at 200 nM incubated for 72 hrs by CCK8 assay; type: functional, cell-based
# NCI-H1975 = assay: Antiproliferative activity against human NCI-H1975 cells assessed as reduction in cell viability incubated for 72 hrs by CCK8 assay; type: functional, cell-based
# HepG2 = assay: Antiproliferative activity against human HepG2 cells assessed as reduction in cell viability incubated for 72 hrs by CCK8 assay; type: functional, cell-based
# PC-3 = assay: Antiproliferative activity against human PC-3 cells assessed as reduction in cell viability incubated for 72 hrs by CCK8 assay; type: functional, cell-based
# A-375 [11] = assay: Effect on mirdametinib-induced antitumor activity against human A-375 cells assessed as reduction in cell viability at 200 nM incubated for 72 hrs by CCK8 assay; type: functional, cell-based
# HCT-116 [12] = assay: Effect on dabrafenib-induced antitumor activity against human HCT-116 cells assessed as reduction in cell viability at 200 nM incubated for 72 hrs by CCK8 assay; type: functional, cell-based
# HCT-116 [13] = assay: Effect on GDC0994-induced antitumor activity against human HCT-116 cells assessed as reduction in cell viability at 200 nM incubated for 72 hrs by CCK8 assay; type: functional, cell-based
# [14] = target: T1, von Hippel-Lindau disease tumor suppressor/Mitogen-activated protein kinase 7; assay: PROTAC activity at VHL/ERK5 in human HCT-116 cells assessed as induction of ERK5 degradation at 200 nM incubated for 48 hrs by western blot analysis; type: cell-based
# Target sequence in this assay (P40337 whole entry partner): as above
# Target sequence in this assay (Q13164 2-816 limits assumed): as the sequence (Q13164 2-816 limits assumed) above
# [15] = target: T1, von Hippel-Lindau disease tumor suppressor/Mitogen-activated protein kinase 7; assay: PROTAC activity at VHL/ERK5 in human THP-1 cells assessed as induction of ERK5 degradation at 0.5 uM incubated for 0.5 hrs followed by incubation with LPS for 24 hrs by western blot analysis; type: cell-based; details: time 24.5 hrs
# Target sequence in this assay (P40337 whole entry partner): as the sequence (P40337 whole entry partner) above
# Target sequence in this assay (Q13164 2-816 limits assumed): as the sequence (Q13164 2-816 limits assumed) above
# [16] = target: T1, von Hippel-Lindau disease tumor suppressor/Mitogen-activated protein kinase 7; assay: PROTAC activity at VHL/ERK5 in human THP-1 cells assessed as decrease in IL-6 level at 0.5 uM incubated for 0.5 hrs followed by incubation with LPS for 24 hrs; type: cell-based; details: time 24.5 hrs
# Target sequence in this assay (P40337 whole entry partner): as the sequence (P40337 whole entry partner) above
# Target sequence in this assay (Q13164 2-816 limits assumed): as the sequence (Q13164 2-816 limits assumed) above
# THP-1 = assay: Inhibition of M2 macrophage development in PMA-differentiated human THP-1 cells assessed as morphological alterations in macrophages at 0.5 uM incubated for 48 hrs by microscopic analysis; type: functional, cell-based
# HCT-116 [17] = assay: Inhibition of M2 macrophage development in human HCT-116 cells assessed as inhibition of cell colony formation at 0.5 uM cultured in macrophage M0 medium and measured after 7 days in presence of LPS by crystal violet staining based analysis; type: functional; details: time 7.0 day
# [18] = target: T2, Mitogen-activated protein kinase 7; assay: Inhibition of ERK5 (unknown origin) at 0.5 uM by kinase profiling analysis
# Target sequence in this assay (Q13164 2-816 limits assumed): as above
# [19] = target: T1, von Hippel-Lindau disease tumor suppressor/Mitogen-activated protein kinase 7; assay: PROTAC activity at VHL/ERK5 in human A-375 cells assessed as maximal induction of ERK5 degradation incubated for 12 hrs by western blot analysis relative to control; type: cell-based
compound,measurement,setting,value
COc1cc(N2CCN(CCCCCCC(=O)N[C@H](C(=O)N3C[C@H](O)C[C@H]3C(=O)N[C@@H](C)c3ccc(-c4scnc4C)cc3)C(C)(C)C)CC2)ccc1Nc1ncc2c(n1)N(C)c1ccccc1C(=O)N2C,Activity,[1],Active
same,DC50,[2],~17 nM
same,IC50,[3],62.4 nM
same,Activity,[4],inactive
same,Activity,[5],Active
same,Activity,[6],Active
same,DC50,[7],22.7 nM
same,DC50,[8],5.6 nM
same,DC50,[9],41.4 nM
same,Activity,A-375 [10],inactive
same,Activity,NCI-H1975,inactive
same,Activity,HepG2,inactive
same,Activity,PC-3,inactive
same,Activity,A-375 [11],inactive
same,Activity,HCT-116 [12],inactive
same,Activity,HCT-116 [13],inactive
same,Activity,[14],Active
same,Activity,[15],Active
same,Activity,[16],Active
same,inhibition,THP-1,Active
same,inhibition,HCT-116 [17],Active
same,inhibition,[18],Active
same,Activity,[19],91.4%
